Results on five compounds are retold here after patent publication US5424456A, “N-arylalkylderivatives of 2-aminomethyl-2,3-dihydro-1,4-benzodioxine and the process of preparation thereof” (Vyzkumny Ustav Pro Farmacii A Biochemii s.p., priority 1991, dated 1995).

Molecules are shown by their SMILES.

One experiment concerns the target T1, calcium channel (Rattus norvegicus, UniProt P22002).
T1 construct: helically cut rat aortic strip; from tissue; host or cells: rat aorta (helically cut strip)
In words: Calcium channel blocking activity, K+ depolarization-induced contraction of helically cut rat aortic strip. Conditions: Krebs-Henselheit solution, 37° C., cumulative doses, read-out: IC50 (50% decrease of contraction of the aortic strip). The method, then: The calcium channel blocking activity of the compounds was tested using a helically cut rat aortic strip in Krebs-Henselheit solution at 37° C., bubbled with a mixture of 95% O2 and 5% CO2. The isometrically registered contractions were induced by K^(+). depolarization. The test compounds were applied in a cumulative doses and the vasodilating activity thereof was expressed in calculated concentration of the test compound, causing 50% decrease of contraction of the aortic strip (IC50).

The subject of another experiment is blood pressure. Description: Hypotensive activity, pentobarbital anaesthesized dogs. The format is in vivo, dog. The conditions noted are these: i.v. From the text: b) The blood pressure of pentobarbital anaesthesized dogs was registered invasively in arteria femoralis. The average decrease in systolic (SBP) arid diastolic (DBP) blood pressure expressed in per cents of the starting blood pressure level after intravenous and oral administration is shown in Tables 5 and 6.

Experiment [1] concerns rat peripheral venous thrombosis. Description: Antithrombotic activity, rat peripheral venous thrombosis in closed abdominal part of vena cava. The format is in vivo. The conditions noted are these: po, rats, orally, read-out: statistically significant effective dose (mass of thrombi). As to the method:
The antithrombotic activity of the test compounds was established using the model of rat peripheral venous thrombosis in a closed abdominal part of vena cava. The thrombus was induced by intravenous administration of hypotonic solution of sodium chloride. The thrombus was freed 10 minutes after induction and weighted. The mass of thrombi in control animals was compared to the mass of thrombi of animals administered by the test compound. The statistically significant effective dose for compound VUFB 17951 was 0.5 mg/kg intravenously and 5 mg/kg orally and for the compound VUFB 17959 0.25 mg/kg and 1.0 mg/kg, respectively. The corresponding dose of a standard (Cilostazol, generic name, Merck index, 11th Edition, 2277) was 25 mg/kg orally.

The mark [2] stands for this setting: 4.5 mg/kg, value 1 of 5 (heads 5/30/60/180 min; probably 1 min).
Where [3] appears, read: 4.5 mg/kg, value 2 of 5 (heads 5/30/60/180 min; probably 5 min).
[4] abbreviates: 4.5 mg/kg, value 3 of 5 (heads 5/30/60/180 min; probably 30 min).
[5] abbreviates: 4.5 mg/kg, value 4 of 5 (heads 5/30/60/180 min; probably 60 min).
Setting [6] is: 4.5 mg/kg, value 5 of 5 (heads 5/30/60/180 min; probably 180 min).
Setting [7] is: 4.6 mg/kg, value 1 of 5 (heads 5/30/60/180 min; probably 1 min).
Where [8] appears, read: 4.6 mg/kg, value 2 of 5 (heads 5/30/60/180 min; probably 5 min).
[9] abbreviates: 4.6 mg/kg, value 3 of 5 (heads 5/30/60/180 min; probably 30 min).
The mark [10] stands for this setting: 4.6 mg/kg, value 4 of 5 (heads 5/30/60/180 min; probably 60 min).
Where [11] appears, read: 4.6 mg/kg, value 5 of 5 (heads 5/30/60/180 min; probably 180 min).

T1 sequence (P22002 whole entry): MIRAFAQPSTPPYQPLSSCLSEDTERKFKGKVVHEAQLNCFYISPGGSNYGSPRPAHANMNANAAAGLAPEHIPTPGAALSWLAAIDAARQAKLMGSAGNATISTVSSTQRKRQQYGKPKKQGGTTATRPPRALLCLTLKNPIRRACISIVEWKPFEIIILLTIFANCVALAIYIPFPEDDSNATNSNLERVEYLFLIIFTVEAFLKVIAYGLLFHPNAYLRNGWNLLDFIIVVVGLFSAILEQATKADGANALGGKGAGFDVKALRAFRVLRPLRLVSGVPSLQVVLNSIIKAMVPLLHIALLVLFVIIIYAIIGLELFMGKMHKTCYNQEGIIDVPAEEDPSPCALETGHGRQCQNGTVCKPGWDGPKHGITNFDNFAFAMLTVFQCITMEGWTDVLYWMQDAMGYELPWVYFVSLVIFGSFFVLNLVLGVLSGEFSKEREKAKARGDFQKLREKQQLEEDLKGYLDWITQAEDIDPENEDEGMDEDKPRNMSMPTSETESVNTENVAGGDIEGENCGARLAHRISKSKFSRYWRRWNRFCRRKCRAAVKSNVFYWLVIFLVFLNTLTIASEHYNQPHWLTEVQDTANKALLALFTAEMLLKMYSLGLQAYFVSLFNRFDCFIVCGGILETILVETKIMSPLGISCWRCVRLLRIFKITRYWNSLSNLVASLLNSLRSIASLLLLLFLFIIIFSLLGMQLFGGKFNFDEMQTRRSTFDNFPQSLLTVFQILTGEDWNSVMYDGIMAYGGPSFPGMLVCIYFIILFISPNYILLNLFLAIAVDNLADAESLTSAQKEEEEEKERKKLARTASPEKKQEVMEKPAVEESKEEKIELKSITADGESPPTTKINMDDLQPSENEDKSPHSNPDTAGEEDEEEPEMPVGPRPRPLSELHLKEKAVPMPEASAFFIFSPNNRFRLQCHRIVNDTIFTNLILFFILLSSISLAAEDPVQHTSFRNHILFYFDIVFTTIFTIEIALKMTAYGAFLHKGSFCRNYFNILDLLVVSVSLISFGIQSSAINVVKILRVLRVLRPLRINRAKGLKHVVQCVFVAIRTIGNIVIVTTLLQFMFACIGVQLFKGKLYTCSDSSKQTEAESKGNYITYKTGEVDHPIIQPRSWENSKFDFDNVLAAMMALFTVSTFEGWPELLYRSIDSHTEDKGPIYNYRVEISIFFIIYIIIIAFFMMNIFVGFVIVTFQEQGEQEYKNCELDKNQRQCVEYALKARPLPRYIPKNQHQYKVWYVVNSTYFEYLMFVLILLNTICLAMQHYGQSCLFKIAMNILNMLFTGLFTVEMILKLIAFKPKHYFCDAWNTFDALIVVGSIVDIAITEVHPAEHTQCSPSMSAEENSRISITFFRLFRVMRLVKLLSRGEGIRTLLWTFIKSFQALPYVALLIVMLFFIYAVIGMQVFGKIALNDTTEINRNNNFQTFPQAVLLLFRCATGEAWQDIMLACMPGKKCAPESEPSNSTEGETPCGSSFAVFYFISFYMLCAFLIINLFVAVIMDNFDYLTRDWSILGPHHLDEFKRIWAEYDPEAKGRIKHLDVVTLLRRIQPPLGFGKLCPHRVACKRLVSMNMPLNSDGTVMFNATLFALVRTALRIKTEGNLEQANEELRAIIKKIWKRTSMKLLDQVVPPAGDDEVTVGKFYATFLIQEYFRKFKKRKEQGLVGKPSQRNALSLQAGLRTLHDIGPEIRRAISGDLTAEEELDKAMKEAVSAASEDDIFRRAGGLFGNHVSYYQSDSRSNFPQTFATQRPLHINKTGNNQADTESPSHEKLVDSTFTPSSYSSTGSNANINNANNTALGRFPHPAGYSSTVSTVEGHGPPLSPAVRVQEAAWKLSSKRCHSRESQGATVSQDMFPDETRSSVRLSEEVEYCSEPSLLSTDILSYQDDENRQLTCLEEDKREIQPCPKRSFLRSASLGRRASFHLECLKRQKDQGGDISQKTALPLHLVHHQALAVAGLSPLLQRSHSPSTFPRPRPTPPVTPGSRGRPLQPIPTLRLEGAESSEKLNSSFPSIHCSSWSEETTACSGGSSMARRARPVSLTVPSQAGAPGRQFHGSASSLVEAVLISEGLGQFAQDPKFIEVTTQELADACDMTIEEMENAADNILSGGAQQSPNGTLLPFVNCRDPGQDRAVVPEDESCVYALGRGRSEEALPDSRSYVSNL
T1 sequence (P54290 25-1091 partner): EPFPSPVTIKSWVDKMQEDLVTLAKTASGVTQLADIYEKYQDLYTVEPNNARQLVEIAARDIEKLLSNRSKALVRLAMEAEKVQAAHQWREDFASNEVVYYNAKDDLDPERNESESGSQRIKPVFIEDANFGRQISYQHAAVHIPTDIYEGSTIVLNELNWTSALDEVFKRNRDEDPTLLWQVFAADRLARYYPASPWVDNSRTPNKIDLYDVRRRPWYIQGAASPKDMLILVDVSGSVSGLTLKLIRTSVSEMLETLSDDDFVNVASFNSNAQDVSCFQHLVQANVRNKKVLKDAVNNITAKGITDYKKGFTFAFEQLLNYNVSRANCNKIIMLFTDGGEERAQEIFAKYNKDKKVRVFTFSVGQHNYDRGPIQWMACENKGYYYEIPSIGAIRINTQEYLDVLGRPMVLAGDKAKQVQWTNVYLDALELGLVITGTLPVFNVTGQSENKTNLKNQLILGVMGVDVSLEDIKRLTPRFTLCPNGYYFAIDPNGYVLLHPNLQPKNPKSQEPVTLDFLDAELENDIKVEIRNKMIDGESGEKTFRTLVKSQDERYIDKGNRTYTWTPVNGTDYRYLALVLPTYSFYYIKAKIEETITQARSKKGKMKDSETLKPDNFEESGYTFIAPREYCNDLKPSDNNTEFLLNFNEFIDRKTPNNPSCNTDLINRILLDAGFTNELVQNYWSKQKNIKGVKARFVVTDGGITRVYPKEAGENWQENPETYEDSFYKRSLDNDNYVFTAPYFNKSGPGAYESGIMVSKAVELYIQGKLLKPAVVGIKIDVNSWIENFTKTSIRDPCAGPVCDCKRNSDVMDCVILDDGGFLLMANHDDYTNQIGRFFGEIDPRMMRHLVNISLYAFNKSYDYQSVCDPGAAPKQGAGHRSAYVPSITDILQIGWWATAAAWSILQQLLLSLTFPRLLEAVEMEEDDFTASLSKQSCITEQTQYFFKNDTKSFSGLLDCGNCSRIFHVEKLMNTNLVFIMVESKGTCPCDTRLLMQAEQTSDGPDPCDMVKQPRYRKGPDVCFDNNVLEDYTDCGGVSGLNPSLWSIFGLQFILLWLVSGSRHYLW

`Cc1ccccc1C(C#N)(CCCNCC1COc2ccccc2O1)C(C)C` (single isomer, unassigned) [VUFB 18007, 5-[(+)-2,3-dihydro-1,4-benzodioxin-2-ylmethylamino]-2-isopropyl-2- -(2-methylphenyl) valeronitrite]: the half-maximal inhibitory concentration (IC50) at calcium channel came to 15 µM. In addition, the “decrease in diastolic blood pressure (DBP)” value (shortened to “decrease … (DBP)”) with blood pressure (setting [2]) was -66 per cents; with blood pressure (setting [3]), -41 per cents; in the experiment with blood pressure (setting [4]), -25 per cents; in the experiment on blood pressure (setting [5]), -19 per cents; in the experiment on blood pressure (setting [6]), -12 per cents. The “decrease in systolic blood pressure (SBP)” value (shortened to “decrease … (SBP)”) in the experiment on blood pressure (setting [2]) is reported as -47 per cents; with blood pressure (setting [3]), -33 per cents; with blood pressure (setting [4]), -27 per cents; in the experiment on blood pressure (setting [5]), -22 per cents; with blood pressure (setting [6]), -17 per cents.
Consider `Cc1ccccc1C(C#N)(CCCNCC1COc2ccccc2O1)C(C)C` (single isomer, unassigned) [VUFB 18018, 5-[(-)-2,3-dihydro-1,4-benzodioxin-2-ylmethylamino]-2-isopropyl-2- -(2-methylphenyl) valeronitrile], for which, at calcium channel, the IC50 came out at 15 µM. Moreover, the “decrease … (DBP)” value in the experiment on blood pressure (setting [2]) is recorded as -54 per cents; in the experiment on blood pressure (setting [3]), -46 per cents; in the experiment on blood pressure (setting [4]) it was -29 per cents; in the experiment with blood pressure (setting [5]), -24 per cents; with blood pressure (setting [6]), -22 per cents. Further, the “decrease … (SBP)” value with blood pressure (setting [2]) was -40 per cents; with blood pressure (setting [3]), -42 per cents; with blood pressure (setting [4]), -30 per cents; in the experiment on blood pressure (setting [5]) it was -22 per cents; in the experiment on blood pressure (setting [6]), -21 per cents.
As for `COc1ccc(C(C#N)(CCCNCC2COc3ccccc3O2)C(C)C)cc1OC` (single isomer, unassigned) [VUFB 18019, 5-[(+)-2,3-dihydro-1,4-benzodioxin-2-ylmethylamino]-2-(3,4-dimethoxyphenyl)-2-isopropyl valeronitrile], the IC50 on calcium channel worked out at 16 µM. The “decrease … (DBP)” value is -54 per cents in the experiment on blood pressure (setting [7]); -32 per cents in the experiment with blood pressure (setting [8]); -8 per cents in the experiment on blood pressure (setting [9]); -14 per cents with blood pressure (setting [10]); -8 per cents in the experiment with blood pressure (setting [11]). Further, the “decrease … (SBP)” value is recorded as -17 per cents in the experiment on blood pressure (setting [7]); -32 per cents in the experiment on blood pressure (setting [8]); -26 per cents with blood pressure (setting [9]); -16 per cents with blood pressure (setting [10]); -14 per cents in the experiment on blood pressure (setting [11]).
On to `COc1ccc(C(C#N)(CCCNCC2COc3ccccc3O2)C(C)C)cc1OC` (single isomer, unassigned) [VUFB 18020, 5-[(-)-2,3-dihydro-1,4-benzodioxin-2-ylmethylamino]-2-(3,4-dimeth-oxyphenyl)-2-isopropyl valeronitrile], for which, on calcium channel, the IC50 was 25 µM. Further, the “decrease … (DBP)” value in the experiment on blood pressure (setting [7]) is -63 per cents; in the experiment on blood pressure (setting [8]) it was -63 per cents; in the experiment on blood pressure (setting [9]), -45 per cents; in the experiment on blood pressure (setting [10]) it was -37 per cents; in the experiment on blood pressure (setting [11]), -34 per cents. Besides, the “decrease … (SBP)” value in the experiment with blood pressure (setting [7]) is reported as -46 per cents; in the experiment with blood pressure (setting [8]), -58 per cents; in the experiment with blood pressure (setting [9]) it was -43 per cents; in the experiment with blood pressure (setting [10]) it was -35 per cents; in the experiment with blood pressure (setting [11]) it was -40 per cents.
For `O=C1CCc2cc(OCCCCc3nnnn3C3CCCCC3)ccc2N1` [Cilostazol, reference compound], the minimal effective dose in experiment [1] turned out to be 25 mg/kg.

What is called IC50 is the concentration that gives 50% inhibition.
